Tested on: HSSY-II tumor spheroid viability
Experiment: Anticancer human tumor HSSY-II cell line growth inhibition;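 note: spheroids exposed to compounds for seven days before reading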;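 for viability, T/C: percent of DMSO vehicle control viability so 100% = untreated level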
Conditions: spheroids with HUVEC and MSC; for IC50: curve of first compound; for viability, T/C: stronger effect = lower value
Outline: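 Single agents and combinations were tested on spheroids built from tumor cells plus HUVEC and hMSC, at half-log dilutions starting at or near clinical Cmax, else 10 microM; final DMSO 0.25% (v/v).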

[1] = second compound 30 pM, first compound 0.0316 µM
[2] = second compound 30 pM, first compound 0.1 µM
[3] = second compound 30 pM, first compound 0.316 µM
[4] = second compound 30 pM, first compound 1 µM
[5] = second compound 30 pM, first compound 3.16 µM
[6] = second compound 30 pM, first compound 10 µM
[7] = second compound 94.9 pM, first compound 0.0316 µM
[8] = second compound 94.9 pM, first compound 0.1 µM
[9] = second compound 94.9 pM, first compound 0.316 µM
[10] = second compound 94.9 pM, first compound 1 µM
[11] = second compound 94.9 pM, first compound 3.16 µM
[12] = second compound 94.9 pM, first compound 10 µM
[13] = second compound 0.0003 µM, first compound 0.0316 µM
[14] = second compound 0.0003 µM, first compound 0.1 µM
[15] = second compound 0.0003 µM, first compound 0.316 µM
[16] = second compound 0.0003 µM, first compound 1 µM
[17] = second compound 0.0003 µM, first compound 3.16 µM
[18] = second compound 0.0003 µM, first compound 10 µM
[19] = second compound 0.000949 µM, first compound 0.0316 µM
[20] = second compound 0.000949 µM, first compound 0.1 µM
[21] = second compound 0.000949 µM, first compound 0.316 µM
[22] = second compound 0.000949 µM, first compound 1 µM
[23] = second compound 0.000949 µM, first compound 3.16 µM
[24] = second compound 0.000949 µM, first compound 10 µM
[25] = second compound 0.003 µM, first compound 0.0316 µM
[26] = second compound 0.003 µM, first compound 0.1 µM
[27] = second compound 0.003 µM, first compound 0.316 µM
[28] = second compound 0.003 µM, first compound 1 µM
[29] = second compound 0.003 µM, first compound 3.16 µM
[30] = second compound 0.003 µM, first compound 10 µM

| SMILES | IC50 (second compound 30 pM) [µM] | IC50 (second compound 94.9 pM) [µM] | IC50 (second compound 0.0003 µM) [µM] | IC50 (second compound 0.000949 µM) [µM] | IC50 (second compound 0.003 µM) [µM] | viability, T/C [1] [%] | viability, T/C [2] [%] | viability, T/C [3] [%] | viability, T/C [4] [%] | viability, T/C [5] [%] | viability, T/C [6] [%] | viability, T/C [7] [%] | viability, T/C [8] [%] | viability, T/C [9] [%] | viability, T/C [10] [%] | viability, T/C [11] [%] | viability, T/C [12] [%] | viability, T/C [13] [%] | viability, T/C [14] [%] | viability, T/C [15] [%] | also measured |
| --- | --- | --- | --- | --- | --- | --- | --- | --- | --- | --- | --- | --- | --- | --- | --- | --- | --- | --- | --- | --- | --- |
| Cc1cc(C)c(CNC(=O)c2cc(-c3ccc(CN4CCOCC4)cc3)cc3c2cnn3C2CCCC2)c(=O)[nH]1 + COc1cc2c(cc1O)CCNC21CSC2c3c(OC(C)=O)c(C)c4c(c3C(COC1=O)N1C(O)C3Cc5cc(C)c(OC)c(O)c5C(C21)N3C)OCO4 | > 10 | 8.46 | < 0.0316 | < 0.0316 | < 0.0316 | 106 | 106 | 108 | 108 | 107 | 76.6 | 92.4 | 100 | 91.3 | 86 | 79.4 | 45.1 | 15.2 | 15.1 | 13.4 | viability, T/C [16]: 11.8%; viability, T/C [17]: 12.4%; viability, T/C [18]: 11.8%; viability, T/C [19]: 2.63%; viability, T/C [20]: 2.57%; viability, T/C [21]: 2.16%; viability, T/C [22]: 2.23%; viability, T/C [23]: 2.69%; viability, T/C [24]: 1.43%; viability, T/C [25]: 0.15%; viability, T/C [26]: 0.17%; viability, T/C [27]: 0.17%; viability, T/C [28]: 0.15%; viability, T/C [29]: 0.17%; viability, T/C [30]: 0.22% |
| CC1COCCN1c1cc(-c2ccnn2C)c2ccnc(-c3ccn[nH]3)c2n1 (stereo not given) + COc1cc2c(cc1O)CCNC21CSC2c3c(OC(C)=O)c(C)c4c(c3C(COC1=O)N1C(O)C3Cc5cc(C)c(OC)c(O)c5C(C21)N3C)OCO4 | < 0.0316 | < 0.0316 | < 0.0316 | < 0.0316 | < 0.0316 | 14.4 | 6.1 | 4.22 | 3.28 | 3.45 | 5.25 | 8.99 | 6.52 | 3.33 | 2.89 | 3.13 | 4.37 | 5.86 | 5.4 | 3.44 | viability, T/C [16]: 2.22%; viability, T/C [17]: 1.93%; viability, T/C [18]: 2.79%; viability, T/C [19]: 2.32%; viability, T/C [20]: 1.87%; viability, T/C [21]: 1.51%; viability, T/C [22]: 0.74%; viability, T/C [23]: 0.11%; viability, T/C [24]: 0.34%; viability, T/C [25]: 0.49%; viability, T/C [26]: 0.59%; viability, T/C [27]: 0.48%; viability, T/C [28]: 0.35%; viability, T/C [29]: 0.32%; viability, T/C [30]: 0.51% |
| [2H]c1nc(C)nc([2H])c1-c1cc(NC[C@@H](C)c2cccc3c(C(=O)NC)ccnc23)ncn1 + COc1cc2c(cc1O)CCNC21CSC2c3c(OC(C)=O)c(C)c4c(c3C(COC1=O)N1C(O)C3Cc5cc(C)c(OC)c(O)c5C(C21)N3C)OCO4 | > 10 | > 10 | < 0.0316 | < 0.0316 | < 0.0316 | 98 | 93.5 | 95.2 | 99.1 | 94.2 | 86.2 | 86.5 | 89 | 92.5 | 88.4 | 92.1 | 78.3 | 16.1 | 16 | 17.8 | viability, T/C [16]: 14.6%; viability, T/C [17]: 9.62%; viability, T/C [18]: 12%; viability, T/C [19]: 2.64%; viability, T/C [20]: 1.58%; viability, T/C [21]: 3.44%; viability, T/C [22]: 3.49%; viability, T/C [23]: 2.59%; viability, T/C [24]: 1.53%; viability, T/C [25]: 0.15%; viability, T/C [26]: 0.14%; viability, T/C [27]: 0.14%; viability, T/C [28]: 0.14%; viability, T/C [29]: 1.6%; viability, T/C [30]: 0.24% |

Source: PubChem BioAssay AID1845204 (Molecular Pharmacology Branch, DTP, NCI, 2023)
